# Test results from article PMC9220351, “Evaluation of a Conformationally Constrained Indole Carboxamide as a Potential Efflux Pump Inhibitor in Pseudomonas aeruginosa” (Antibiotics, 2022).
# Legend:
# [1] = tested on: P. aeruginosa DA7232 (gyrA-T83I, parC-S80L); assay: MIC / levofloxacin potentiation, fluoroquinolone-resistant strain; assay type: cell-based, Pseudomonas aeruginosa
# Text: (§1) P. aeruginosa ATCC 27853 was obtained from the American Type Culture Collection (ATCC; Manassas, VA, USA). P. aeruginosa multidrug-resistant isolates were obtained from the CDC and FDA Antibiotic Resistance Isolate Bank (Atlanta, GA, USA). P. aeruginosa DA7232 (gyrA-T83I, parC-S80L) was a kind gift from Prof. Dan I. Andersson, Uppsala University, Uppsala, Sweden, and has been characterized elsewhere. P. aeruginosa strains K767 (WT), K1455 (mexAB-oprM overexpressed), K2415 (mexXY-oprM overexpressed), and K3698 (oprM∆) were obtained from Prof. Keith Poole, Queen’s University, Kingston, Ontario, Canada and have been characterized elsewhere. Bacterial cells were grown in cation-adjusted Mueller Hinton (CAMH) media, brain heart infusion broth (BHI), or tryptic soy agar (TSA) plates were all obtained from Becton, Dickinson, and Company (BD; Franklin Lakes, NJ, USA). Aztreonam, ceftazidime, moxifloxacin, levofloxacin, minocycline, tigecycline, chloramphenicol, nitrocefin, and imipenem were purchased from TOKU-E (Bellingham, WA, USA). Azithromycin was purchased from Tokyo Chemical Industry (Portland, OR, USA). Cotrimoxazole was purchased from Toronto Research Chemicals (Toronto, ON, Canada). Doxycycline and polymyxin B were purchased from Sigma-Aldrich (St. Louis, MO, USA). Ethidium bromide (EtBr) and glucose were purchased from VWR (Radnor, PA, USA). MC-04,124 and TXA01182 were synthesized at TAXIS Pharmaceuticals. Carbonyl cyanide 3-chlorophenylhydrazone (CCCP) was purchased from Enzo Life Sciences (Farmingdale, NY, USA). DiOC2 (3) and propidium iodide were obtained from Thermo Fisher Scientific (Waltham, MA, USA).
# (§2) MIC assays were performed as described previously.
# [2] = tested on: P. aeruginosa K1455 (mexAB-oprM overexpressed); assay: microbe, parasite or virus in culture; assay type: cell-based, Pseudomonas aeruginosa; conditions: Pseudomonas aeruginosa, read-out: MICs K1455 (↑mexAB-oprM)
# Text: as §1, §2
# [3] = tested on: P. aeruginosa K2415 (mexXY-oprM overexpressed); assay: MIC / potentiation assay, strain K2415; assay type: cell-based, Pseudomonas aeruginosa; conditions: Pseudomonas aeruginosa, read-out: MICs K2415 (↑mexXY-oprM)
# Text: as §1, §2
# [4] = tested on: P. aeruginosa mutants EPIR1S, EPIR9S, EPIR20L, EPIR43; assay: MIC of antimicrobials in TXA09155-resistant mutants; assay type: cell-based, Pseudomonas aeruginosa; conditions: Pseudomonas aeruginosa
# Procedure: (§3) All resistant colonies were verified by determining the MIC to TXA09155. […] This two-component system regulates the expression of more than 100 genes in P. aeruginosa, including genes that code for efflux components (mexX), and plays a role in the resistance to cationic antimicrobial peptides and aminoglycoside antibiotics.
# as §2
# P. aeruginosa ATCC 27853 [5] = assay type: cell-based, Pseudomonas aeruginosa
# Procedure: as §3
# The frequency of resistance studies was carried out as described previously.
# [6] = tested on: P. aeruginosa ATCC 27853 inner membrane; assay: Flow cytometry propidium iodide (PI) assay for inner membrane permeabilization; assay type: cell-based, Pseudomonas aeruginosa; conditions: no inner membrane permeabilization below this concentration
# Procedure: Membrane disruption was assayed with two approaches: (1) a flow cytometry-based propidium iodide (PI) assay to monitor inner membrane permeabilization, and (2) a nitrocefin (NCF) assay to monitor outer membrane permeabilization. NCF is a chromogenic cephalosporin that changes from yellow to red when the amide bond in the β-lactam ring is hydrolyzed by a β-lactamase. The rate of hydrolysis in intact cells is slow, as it is limited by the rate of diffusion of periplasmic β-lactamase across the outer membrane. However, in the presence of an agent that permeabilizes the outer membrane, the rate of hydrolysis will increase [33]. […] Polymyxin B was used as a positive control (Figure 2B). […] Cells whose membranes remain intact exclude PI and remain non-fluorescent, while cells with compromised membrane integrity allow PI to enter and bind to DNA, resulting in fluorescence.
# A flow cytometry assay used for assessing potential inner membranes permeabilization of P. aeruginosa bacterial cells to PI was conducted using the LIVE/DEAD BacLight Kit from Invitrogen (Waltham, MA, USA). […] Intracellular PI fluorescence was detected by flow cytometry using a CytoFlex (Beckman Coulter Inc., Brea, CA, USA). […] For each sample, the fluorescence of 10,000 individual bacterial cells was measured, and the percent of cells that stained positive for PI fluorescence was calculated.
# P. aeruginosa ATCC 27853 [7] = assay: Intracellular ATP levels; assay type: cell-based, Pseudomonas aeruginosa; conditions: 1/4th and 1/8th MIC, 3 h
# Procedure: P. aeruginosa intracellular ATP levels were determined as described previously using an ATP determination kit (catalog number A22066; Thermo Fisher Scientific, Waltham, MA, USA). […] After treatment, the cells were lysed in chloroform, which was subsequently removed by boiling at 80 °C. The persistent ATP from cell lysate was measured in a 96-well black flat-bottom plate and plotted as relative luminescence units. […] Error bars represent the standard deviation of triplicates.
# [8] = Metabolic stability in human liver microsomes; assay type: in vitro ADME
# Procedure: (§4) The metabolic stability of TXA09155 was determined in human, mouse, and rat liver microsomes by Eurofins (St. Charles, MO, USA) using the substrate depletion method (in vitro half-life (t1/2) method). Quantification was performed by LC/MS/MS. In this assay, depletion of the parent compound is measured over time to determine the compound’s in vitro t1/2 and hepatic extraction ratios (ER). This is used to predict metabolic clearance. […] This assay utilizes electrophysiology measurements on the electric current passing through the hERG channel heterologously expressed in a stable CHO cell line. Channels are open by a hERG-specific voltage protocol, and the compound effects are directly characterized by their block of the hERG current. The assay is performed on an automated platform, Q-Patch.
# CYP1A2 = CYP1A2 (Homo sapiens, UniProt P05177); assay: CYP inhibition; assay type: in vitro ADME; conditions: read-out: CYP Inhibition IC50, CYP 1A2
# CYP1A2, sequence (P05177 whole entry): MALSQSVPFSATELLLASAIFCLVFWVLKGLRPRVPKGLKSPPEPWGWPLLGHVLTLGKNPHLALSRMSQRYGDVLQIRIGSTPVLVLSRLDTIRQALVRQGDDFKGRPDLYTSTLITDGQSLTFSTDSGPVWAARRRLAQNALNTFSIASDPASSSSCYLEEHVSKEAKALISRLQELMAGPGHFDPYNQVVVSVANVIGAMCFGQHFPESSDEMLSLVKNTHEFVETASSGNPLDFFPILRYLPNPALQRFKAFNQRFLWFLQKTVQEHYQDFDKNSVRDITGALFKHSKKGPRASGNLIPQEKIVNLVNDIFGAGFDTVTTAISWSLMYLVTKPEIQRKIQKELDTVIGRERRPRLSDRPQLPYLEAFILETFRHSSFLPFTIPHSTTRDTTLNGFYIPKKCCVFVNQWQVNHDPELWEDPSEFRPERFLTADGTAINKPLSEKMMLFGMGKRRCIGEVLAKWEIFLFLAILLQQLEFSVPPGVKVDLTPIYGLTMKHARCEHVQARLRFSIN
# CYP2C19 = CYP2C19 (Homo sapiens, UniProt P33261); assay: CYP inhibition; assay type: in vitro ADME; conditions: read-out: CYP Inhibition IC50, CYP 2C19
# CYP2C19, sequence (P33261 whole entry): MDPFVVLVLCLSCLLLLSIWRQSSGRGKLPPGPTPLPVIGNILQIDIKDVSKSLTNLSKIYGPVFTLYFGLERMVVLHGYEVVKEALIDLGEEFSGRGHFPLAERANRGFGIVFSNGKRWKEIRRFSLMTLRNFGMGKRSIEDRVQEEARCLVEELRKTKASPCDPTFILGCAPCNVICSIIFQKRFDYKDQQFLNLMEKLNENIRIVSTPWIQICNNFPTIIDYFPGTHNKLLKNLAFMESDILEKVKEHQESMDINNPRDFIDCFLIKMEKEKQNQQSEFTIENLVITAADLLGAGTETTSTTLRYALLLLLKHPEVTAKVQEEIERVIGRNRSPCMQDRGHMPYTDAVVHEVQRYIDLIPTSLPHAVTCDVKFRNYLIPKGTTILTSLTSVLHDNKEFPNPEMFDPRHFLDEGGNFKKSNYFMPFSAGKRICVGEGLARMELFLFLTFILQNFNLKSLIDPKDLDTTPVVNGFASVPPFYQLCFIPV
# CYP3A4 = CYP3A4 (Homo sapiens, UniProt P08684); assay: CYP inhibition; assay type: in vitro ADME; conditions: read-out: CYP Inhibition IC50, CYP 3A4
# CYP3A4, sequence (P08684 whole entry): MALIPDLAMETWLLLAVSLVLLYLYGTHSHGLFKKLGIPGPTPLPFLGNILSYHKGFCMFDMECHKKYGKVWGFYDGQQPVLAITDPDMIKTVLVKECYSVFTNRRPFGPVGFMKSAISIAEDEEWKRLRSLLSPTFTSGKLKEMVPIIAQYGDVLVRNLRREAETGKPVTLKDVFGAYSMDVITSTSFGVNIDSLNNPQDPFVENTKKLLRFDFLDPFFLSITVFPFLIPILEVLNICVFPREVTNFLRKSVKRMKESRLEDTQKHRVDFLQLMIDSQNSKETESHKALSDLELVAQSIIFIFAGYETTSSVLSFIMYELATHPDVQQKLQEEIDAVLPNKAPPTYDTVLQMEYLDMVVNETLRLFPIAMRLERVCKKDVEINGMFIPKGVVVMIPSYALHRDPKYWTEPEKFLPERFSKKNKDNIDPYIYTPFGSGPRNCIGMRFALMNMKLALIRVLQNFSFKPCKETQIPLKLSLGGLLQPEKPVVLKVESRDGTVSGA
# [9] = CellTiterGlo cytotoxicity assay; assay type: cell-based; conditions: human, 293T cells
# human RBCs = assay: Hemolytic activity; assay type: cell-based; conditions: 12.5 to 100 µM
# hERG channel = hERG channel (Homo sapiens, UniProt Q12809); assay: hERG patch clamp assay (Q-Patch, CHO cell line); assay type: cell-based
# hERG channel, sequence (Q12809 whole entry): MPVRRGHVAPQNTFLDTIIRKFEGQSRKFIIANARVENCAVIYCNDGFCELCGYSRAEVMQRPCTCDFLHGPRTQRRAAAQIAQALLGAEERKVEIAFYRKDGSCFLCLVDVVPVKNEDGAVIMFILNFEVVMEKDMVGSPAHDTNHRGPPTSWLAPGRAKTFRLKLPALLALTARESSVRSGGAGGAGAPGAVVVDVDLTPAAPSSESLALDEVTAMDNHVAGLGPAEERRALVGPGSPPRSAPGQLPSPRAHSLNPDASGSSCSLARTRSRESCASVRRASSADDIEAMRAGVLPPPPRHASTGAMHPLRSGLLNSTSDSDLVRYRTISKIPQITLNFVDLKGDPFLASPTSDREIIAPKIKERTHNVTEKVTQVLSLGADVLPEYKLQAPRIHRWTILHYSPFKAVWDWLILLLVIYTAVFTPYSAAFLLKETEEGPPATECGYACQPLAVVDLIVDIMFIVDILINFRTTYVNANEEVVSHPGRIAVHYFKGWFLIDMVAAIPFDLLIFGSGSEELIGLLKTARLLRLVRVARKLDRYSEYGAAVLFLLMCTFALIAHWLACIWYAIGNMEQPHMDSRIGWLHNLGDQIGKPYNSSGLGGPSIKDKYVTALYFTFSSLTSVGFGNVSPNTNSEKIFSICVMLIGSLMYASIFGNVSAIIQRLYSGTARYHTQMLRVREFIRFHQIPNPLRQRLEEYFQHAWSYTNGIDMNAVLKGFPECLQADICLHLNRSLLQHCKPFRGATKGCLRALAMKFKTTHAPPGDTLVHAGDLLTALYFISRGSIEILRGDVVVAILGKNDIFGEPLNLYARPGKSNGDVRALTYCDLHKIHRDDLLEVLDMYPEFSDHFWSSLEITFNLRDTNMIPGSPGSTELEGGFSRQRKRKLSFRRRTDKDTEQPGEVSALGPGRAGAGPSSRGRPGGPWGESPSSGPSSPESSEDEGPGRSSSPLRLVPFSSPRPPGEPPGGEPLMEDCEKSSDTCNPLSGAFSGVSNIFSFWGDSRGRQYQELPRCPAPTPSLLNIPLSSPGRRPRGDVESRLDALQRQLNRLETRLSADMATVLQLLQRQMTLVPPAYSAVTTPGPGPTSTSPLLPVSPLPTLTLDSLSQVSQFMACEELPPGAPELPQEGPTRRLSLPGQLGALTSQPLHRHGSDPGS
# Procedure: as §4
structure (smiles),measurement,setting,value
C[C@H]1COc2c(N3CCN(C)CC3)c(F)cc3c(=O)c(C(=O)O)cn1c23 [Levofloxacin],MIC,"[1]; Pseudomonas aeruginosa, read-out: levofloxacin MIC in the presence of […] TXA09155",1 µg/mL
same,Levofloxacin MIC,"[1]; levofloxacin alone, strain DA7232",256 µg/mL
same,MIC,[2],4 µg/mL
same,MIC,[3],4 µg/mL
same,MIC,[4]; strain EPIR1S (phoQ-L175R),1 µg/mL
same,MIC,[4]; strain EPIR9S (phoQ-L175R),1 µg/mL
same,MIC,[4]; strain EPIR20L (phoQ-H248D),1 µg/mL
NCCC[C@H](N)CNC(=O)c1cc2ccc(-c3ccc(F)cc3)cc2[nH]1 [TXA01182],"Frequency of resistance, Levofloxacin (4 μg/mL) + TXA01182 ([…])",P. aeruginosa ATCC 27853 [5]; levofloxacin 4 μg/mL + EPI […],<3.33 × 10^−9
"Cl.NC[C@@H]1CN[C@H](CNC(=O)c2cc3ccc(-c4ccc(F)cc4)cc3[nH]2)C1 [TXA09155, N-(((2S,4R)-4-(aminomethyl)pyrrolidine-2-yl)methyl)-6-(4-fluorophenyl)-1H-indole-2-carboxamide hydrochloride salt]",lowest concentration that potentiated levofloxacin eight-fold,[1]; strain DA7232,3.13 µg/mL
same,concentrations without inner membrane disruption (basal PI fluorescence),[6],< 50 µg/mL
same,ATP depletion,P. aeruginosa ATCC 27853 [7],did not result in ATP depletion
same,fold reduction of the FoR to levofloxacin,P. aeruginosa ATCC 27853 [5],more than 149 fold
same,"FoR, resistance to TXA09155 alone (1×-MIC)",P. aeruginosa ATCC 27853 [5]; 50 μg/mL,1.9 × 10^−3
same,"FoR, resistance to TXA09155 alone (4×-MIC)",P. aeruginosa ATCC 27853 [5]; 200 μg/mL,1.40 × 10^−6
same,MIC,[4]; strain EPIR1S (phoQ-L175R),200 µg/mL
same,MIC,[4]; strain EPIR9S (phoQ-L175R),100 µg/mL
same,MIC,[4]; strain EPIR20L (phoQ-H248D),200 µg/mL
same,HLM and RLM Metabolic Stability (HLM),[8],>60%
same,IC50,CYP1A2,> 100 µM
same,IC50,CYP2C19,> 100 µM
same,IC50,CYP3A4,28.5 µM
same,IC50,[9],> 40 µM
same,hemolytic activity,human RBCs,did not display hemolytic activity
same,IC50,hERG channel,16 µM
